# Laboratory results published in patent US20160214926A1, “DIPHENYLOXYALKYLAMINE DERIVATIVES AND ARYLOXYALKYLAMINE DERIVATIVES, PHARMACEUTICAL COMPOSITION, USE OF SAID PHARMACEUTICAL COMPOSITION FOR TREATING, PREVENTING OR INHIBITING CHRONIC PULMONARY INFLAMMATORY DISEASES AND METHOD FOR TREATING OR PREVENTING SUCH DISEASES” (FUNDACAO OSWALDO CRUZ, priority 2013, published 2016).
# Tested on: A/J mice
# Test: Ovalbumin asthma model: airway hyperreactivity, leukocyte infiltration, cytokines (nebulization)
# Assay type: in vivo
# Details: for airway hyperreactivity (lung resistance and elastance after methacholine): nebulization 2% for 30 minutes, OVA sensitized and challenged
# Procedure: Male A/J mice (18-20 g), coming from the Laboratory Animal Breeding Center of Oswaldo Cruz Foundation, were used in the experiments. The animals were previously sensitized with a mixture of ovalbumin (OVA) (50 μg) (Grade V; Sigma, St. Louis, Mo., USA) and aluminum hydroxide (5 mg) administered subcutaneously on day 0 with boost on day 14 (equal suspension administered intraperitoneally). Nasal instillations of OVA (25 μg/25 μl in sterile 0.9% NaCl) were administered on days 14, 21, 28 and 35, with the hyperresponsiveness analysis performed 24 hours after the last challenge. […] That is, the treatments took place after the installation of asthma framework, reflecting a therapeutic action of the respective compounds analyzed.
# The effect of the treatments on bronchial hyperreactivity was investigated by measuring the resistance changes and pulmonary elastance, using invasive barometric plethysmography whole-body system (Buxco, USA), as previously described (Olsen et al., 2012).
smiles,measurement,setting,value
CC(N)COc1cccc(I)c1.Cl (stereo not drawn) [JME-141],airway hyperreactivity (lung resistance and elastance after methacholine),,abolished
CC(N)COc1ccc(F)c(Cl)c1.Cl (stereo not drawn) [JME-188],IL-5 generation in lung tissue,nebulization 2%,equally sensitive
same,IL-13 generation in lung tissue,nebulization 2%,equally sensitive
same,eotaxin-2 generation in lung tissue,nebulization 2%,inhibited
same,increased production of eotaxin-1,nebulization 2%,failed to modify
same,airway hyperreactivity (lung resistance and elastance after methacholine),,abolished
